# According to ChEMBL document CHEMBL4673244 (J Med Chem, 2020):
# Experiments:
# physchem = details: buffer, pH 7.4
# in vitro [1] = details: dog, MDCK
# in vitro [2] = details: human, liver microsomes
# in vitro [3] = details: human, hepatocytes
SMILES,logD (physchem),Papp (in vitro [1]) [×10⁻⁶ cm/s],microsomal CLint (in vitro [2]) [µL/min/mg],hepatocyte CLint (in vitro [3]) [µL/min/1e6 cells]
C[C@]1(O)CCN(c2nc(N3C[C@H](O)[C@@H](O)C3)cc(C(F)(F)F)c2C#N)C1,2.2,3.5,< 13,
C[C@H]1[C@H](O)CN1c1nc(N2C[C@@H]3[C@@H](CC(=O)O)[C@@H]3C2)cc(C(F)(F)F)c1C#N,1,5.6,< 11,26
C[C@H]1[C@H](O)CN1c1nc(N2C[C@@H]3[C@@H](CC(=O)O)[C@@H]3C2)cc(C(F)(F)F)n1,0.1,1.4,,< 2

# Further lines, results first:
logD (physchem),Papp (in vitro [1]) [×10⁻⁶ cm/s],microsomal CLint (in vitro [2]) [µL/min/mg],hepatocyte CLint (in vitro [3]) [µL/min/1e6 cells],SMILES
3.3,,,,C[C@H]1[C@H](O)CN1c1nc(N2C[C@@H]3[C@@H](CO)[C@@H]3C2)cc(C(F)(F)F)c1C#N
0.6,,,,C[C@H]1[C@H](O)CN1c1nc(N2C[C@@H]3[C@H](C2)[C@H]3C(=O)O)cc(C(F)(F)F)c1C#N
